{"source": "patent US20230097700A1", "about": "“AZETIDINE SULFONAMIDE COMPOUND” (DAIICHI SANKYO COMPANY, LIMITED, priority 2019, published 2023)", "key": {"[1]": {"test_system": "activated T cells (CD4+ T cells derived from the mouse spleen)", "assay": "Incorporation of 3H-thymidine into activated T cells", "type": "cell-based, mouse (C57BL/6J)", "conditions": "3H-thymidine incorporation, mouse spleen CD4+ T cells activated with Dynabeads Mouse T-Activator CD3/CD28", "method": "Effect of a test substance on incorporation of ^3H-thymidine was evaluated using T cells derived from the mouse spleen. The spleen was excised out from a C57BL/6J mouse euthanized, cut into pieces, ground on a cell strainer (40 μm mesh) and centrifuged to collect spleen cells. CD4+ T cells were isolated from the spleen cells by use of EasySep Mouse CD4+ T cell isolation kit (STEMCELL Technologies). CD4+ T cells were seeded to a 96-well round-bottom plate. Test substance dissolved in DMSO (dimethyl sulfoxide) or vehicle (DMSO) was added to culture medium and Dynabeads Mouse T-Activator CD3/CD28 (Thermo Fisher Scientific Inc.) was added. Culture was carried out at 37° C. in 5% CO2. After culture was carried out for 24 hours, ^3H-thymidine (PerkinElmer) diluted with the culture medium was added to individual wells. Culture was further carried out overnight at 37° C. in 5% CO2. In order to measure ^3H-thymidine incorporated in nuclei of the cells, the cells were collected on a filter plate UniFilter-96 GF/B (PerkinElmer) by use of a FilterMate Universal Harvester (PerkinElmer). After the filter plate was placed in a dryer and allowed to stand still for 2 hours or more, scintillation cocktail MicroScint-O (PerkinElmer) was added and radioactivity was measured by TopCount NXT (PerkinElmer). With the radioactivity of a group not containing a test substance being specified as 100% and the radioactivity of a group not activated being specified as 0%, relative radioactivity values of individual wells to which the test substance was added (proliferation rate, % of vehicle) were calculated. The values of “% of vehicle” were entered in analysis software Prism (Version 4.03, GraphPad Software). “Nonlinear regression Log (inhibitor) vs reaction variable tilt” was selected and sigmoid type-fitting (Bottom=0, Top=100) was carried out to calculate 50% inhibition concentration (IC50). The compound of the present invention suppresses ^3H-thymidine incorporation in activated T cells."}, "[2]": {"test_system": "IFN-α production in mouse spleen cells", "assay": "IFN-α production in mouse spleen cells stimulated with TLR9 ligand CpG-ODN D35", "type": "cell-based, mouse (C57BL/6J)", "method": "The concentration of test substance added is 1 nM to 300 nM. The graph represents a curve showing response to concentration of a test substance, with the IFN-α production of a group not containing a test substance being specified as 100% and the IFN-α production of a group not stimulated being specified as 0%.\nIFN-α production by stimulation with TLR9 ligand CpG-ODN D35 activating pDC was evaluated. Spleen cells were prepared from a C57BL/6J mouse euthanized in the same manner as in Test Example 1 and seeded to a 96-well round-bottom plate. Test substance dissolved in DMSO or vehicle (DMSO) was added to culture medium. After pre-incubation was carried out for 30 minutes, CpG-ODN […] (final concentration 1 μM) was added. Culture was carried out at 37° C. in 5% CO2. After culture was carried out for 24 hours, the culture supernatant was recovered. The concentration of IFN-α in the supernatant was measured by ELISA kit (Mouse IFN-alpha Platinum ELISA Kit, eBioscience). With the IFN-α production of a group not containing a test substance being specified as 100% and the IFN-α production of a group not activated being specified as 0%, relative values of IFN-α production of individual wells (IFN-α production rate, % of vehicle) were calculated. The values of “% of vehicle” of IFN-α production were entered in analysis software Prism (Version 5.0, GraphPad Software). […]"}, "[3]": {"test_system": "ConA induced mouse cytokine production model", "assay": "ConA induced mouse cytokine production model, IFN-γ in the plasma", "type": "in vivo, mouse (Balb/c)", "conditions": "one hour before second ConA treatment", "method": "In this test, mice were treated with concanavalin A (ConA) to activate lymphocytes and the medicinal effect of a test substance was evaluated based on the production of IFN-γ. A system in which cytokine production based on expression of LAT1 is induced, by treating mice with ConA twice at optimal timing, was established. To female Balb/c mice of 7 weeks old, a ConA solution (0.4 mg/mL, Concanavalin A, WAKO, 037-08774) prepared with PBS (D-PBS (−), WAKO, 049-29793) was administered (4 mg/kg, twice at an interval of 16 hours) through the tail vein. Four hours later, under anesthesia by isoflurane inhalation, blood was taken from the posterior vena cava of each of the mice. The blood was centrifuged to collect the plasma. The concentration of IFN-γ in the in plasma was measured by AlphaLISA immunoassay kit (Mouse Interferon-gamma (mIFN-γ) Kit, PerkinElmer, AL501C). Test substance was dissolved in 0.5% MC or mushed in an agate mortar, suspended in 0.5% MC to prepare a solution to be administered (1 or 3 mg/mL) and orally administered one hour before the second treatment with ConA so as to be 10 mL/kg (10 or 30 mg/kg. To Vehicle group, 0.5% MC was administered similarly so as to be 10 mL/kg). Test substances were evaluated. Suppression rates (%) were calculated in accordance with the following expression. Suppression rate (%)=100−[(average value of test substance administration group−average value of Normal group)/(average value of Vehicle group−average value of Normal group)×100] Whether the data of two groups, Normal group and Vehicle group, differ or not was determined by Student's or Welch's t test. Whether the data of Vehicle group and a test substance administration group are different or not was analyzed by parametric multiple comparison test, Dunnett test. The compounds (test substances) suppressed IFN-γ production in a dose-dependent manner."}}, "data": [{"molecule": "N[C@@H](Cc1cccc(S(=O)(=O)N2CC(Oc3cccc(F)c3)(c3ccccc3)C2)c1)C(=O)O", "note": "[Example 1, (2S)-2-Amino-3-(3-{[3-(3-fluorophenoxy)-3-phenylazetidin-1-yl]sulfonyl)phenyl)propanoic acid]", "values": [{"measurement": "IC50", "setting": "[1]", "value": 20, "unit": "nM"}, {"measurement": "IC50", "setting": "[2]; CpG-ODN stimulation 1 μM, 24 hours, ELISA", "value": 13, "unit": "nM"}, {"measurement": "suppressive action on IFN-α production", "setting": "[2]; test substance 1 nM to 300 nM", "value": "concentration-dependent suppressive action"}]}, {"molecule": "Cl.[2H]c1c([2H])c([2H])c(OC2(c3ccccc3)CN(S(=O)(=O)c3cccc(C[C@H](N)C(=O)OC(C(=O)N(C)C)C(C)C)c3)C2)c([2H])c1[2H]", "note": "(stereo partly drawn) [Example 25, 1-(Dimethylamino)-3-methyl-1-oxobutan-2-yl (2S)-2-amino-3-(3-{3-phenyl-3-[(^2H5)phenyloxy]azetidin-1-sulfonyl}phenyl)propanoate monohydrochloride]", "values": [{"measurement": "Percent suppression (%)", "setting": "[3]; 10 mg/kg oral", "value": 31, "unit": "%"}, {"measurement": "Percent suppression (%)", "setting": "[3]; 30 mg/kg oral", "value": 51, "unit": "%"}]}, {"molecule": "Cl.[2H]c1c([2H])c([2H])c(OC2(c3ccc(F)cc3)CN(S(=O)(=O)c3cccc(C[C@H](N)C(=O)OC(C(=O)N(C)C)C(C)C)c3)C2)c([2H])c1[2H]", "note": "(stereo partly drawn) [Example 27, 1-(Dimethylamino)-3-methyl-1-oxobutan-2-yl (2S)-2-amino-3-(3-{3-(4-fluorophenyl)-3-[(^2H5)phenyloxy]azetidin-1-sulfonyl}phenyl)propanoate monohydrochloride]", "values": [{"measurement": "Percent suppression (%)", "setting": "[3]; 10 mg/kg oral", "value": 47, "unit": "%"}, {"measurement": "Percent suppression (%)", "setting": "[3]; 30 mg/kg oral", "value": 58, "unit": "%"}]}, {"molecule": "CC(OC(=O)[C@@H](N)Cc1cccc(S(=O)(=O)N2CC(Oc3ccc(F)cc3)(c3ccc(F)cn3)C2)c1)C(=O)N(C)C.Cl.Cl", "note": "(stereo partly drawn) [Example 62, 1-(Dimethylamino)-1-oxopurpan-2-yl (2S)-2-amino-3-(3-{[3-(4-fluorophenoxy)-3-(5-fluoropyridin-2-yl)azetidin-1-yl]sulfonyl}phenyl)propanoate dihydrochloride]", "values": [{"measurement": "Percent suppression (%)", "setting": "[3]; 10 mg/kg oral", "value": 43, "unit": "%"}, {"measurement": "Percent suppression (%)", "setting": "[3]; 30 mg/kg oral", "value": 54, "unit": "%"}]}, {"molecule": "CC(C)C(OC(=O)[C@@H](N)Cc1cccc(S(=O)(=O)N2CC(Oc3ccc(F)cc3)(c3ccc(F)cn3)C2)c1)C(=O)N(C)C.Cl.Cl", "note": "(stereo partly drawn) [Example 69, 1-(Dimethylamino)-3-methyl-1-oxobutan-2-yl (2S)-2-amino-3-(3-{[3-(4-fluorophenoxy)-3-(5-fluoropyridin-2-yl)azetidin-1-yl]sulfonyl}phenyl)propanoate dihydrochloride]", "values": [{"measurement": "Percent suppression (%)", "setting": "[3]; 10 mg/kg oral", "value": 33, "unit": "%"}, {"measurement": "Percent suppression (%)", "setting": "[3]; 30 mg/kg oral", "value": 44, "unit": "%"}]}, {"molecule": "CC(C)C(OC(=O)[C@@H](N)Cc1cccc(S(=O)(=O)N2CC(Oc3ccccc3)(c3ccccc3)C2)c1)C(=O)N(C)C.Cl", "note": "(stereo partly drawn) [Example 91, 1-(Dimethylamino)-3-methyl-1-oxobutan-2-yl (2S)-2-amino-3-[3-(3-phenoxy-3-phenylazetidin-1-sulfonyl)phenyl]propanoate monohydrochloride]", "values": [{"measurement": "Percent suppression (%)", "setting": "[3]; 10 mg/kg oral", "value": 55, "unit": "%"}, {"measurement": "Percent suppression (%)", "setting": "[3]; 30 mg/kg oral", "value": 53, "unit": "%"}]}, {"molecule": "CC(C)C(OC(=O)[C@@H](N)Cc1cccc(S(=O)(=O)N2CC(Oc3ccccc3)(c3ccc(F)cc3)C2)c1)C(=O)N(C)C.Cl", "note": "(stereo partly drawn) [Example 93, 1-(Dimethylamino)-3-methyl-1-oxobutan-2-yl (2S)-2-amino-3-(3-{[3-(4-fluorophenyl)-3-phenoxyazetidin-1-yl]sulfonyl}phenyl)propanoate monohydrochloride]", "values": [{"measurement": "Percent suppression (%)", "setting": "[3]; 10 mg/kg oral", "value": 46, "unit": "%"}, {"measurement": "Percent suppression (%)", "setting": "[3]; 30 mg/kg oral", "value": 34, "unit": "%"}]}]}
